Measurements published in paper PMC12490239, “Combining BET inhibition with SMAC mimetics restricts tumor growth and triggers immune surveillance in preclinical cancer models” (Cell Reports Medicine, 2025).

Columns and labels:
Experiment in all cases: cells
Parameters in all cases: CellTiter-Glo 2.0 luminescence proliferation/viability assay, single agents, human tumour cell line panel
AsPC-1 = settings: Homo sapiens, ASPC1, 96 h; single agent; read-out: IC50 SMACm
Summary of the method: (§1)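 Human tumour cell lines were seeded into assay plates and held at 37°C with 5% CO2 for twenty-four hours, then exposed in triplicate to rising concentrations of the SMAC mimetic, from 4.5 nM to 10 μM, with DMSO as control. After 96 h, viability was read as CellTiter-Glo2.0 luminescence to derive single-agent IC50 values.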

C84 = settings: 96 h; single agent; read-out: IC50 SMACm
Summary of the method: as §1

HCC2998 = settings: Homo sapiens, HCC 2998, 96 h; single agent; read-out: IC50 SMACm
Summary of the method: as §1

HCT-116 = settings: Homo sapiens, HCT-116, 96 h; single agent; read-out: IC50 SMACm
Summary of the method: as §1

HT55 = settings: Homo sapiens, HT55, 96 h; single agent; read-out: IC50 SMACm
Summary of the method: as §1

KLM-1 = settings: KLM1, 96 h; single agent; read-out: IC50 SMACm
Summary of the method: as §1

MKN74 = settings: Homo sapiens, MKN-74, 96 h; single agent; read-out: IC50 SMACm
Summary of the method: as §1

NCI-H520 = settings: Homo sapiens, NCI-H520, 96 h; single agent; read-out: IC50 SMACm
Summary of the method: as §1

NCI-H747 = settings: Homo sapiens, NCI-H747, 96 h; single agent; read-out: IC50 SMACm
Summary of the method: as §1

PSN1 = settings: Homo sapiens, PSN1, 96 h; single agent; read-out: IC50 SMACm
Summary of the method: as §1

SNU1544 = settings: 96 h; single agent; read-out: IC50 SMACm
Summary of the method: as §1

SNU1684 = settings: 96 h; single agent; read-out: IC50 SMACm
Summary of the method: as §1

SW837 = settings: Homo sapiens, SW837, 96 h; single agent; read-out: IC50 SMACm
Summary of the method: as §1

WiDr = settings: Homo sapiens, WiDr, 96 h; single agent; read-out: IC50 SMACm
Summary of the method: as §1

IC50 (AsPC-1): > 10 µM | IC50 (HCC2998): 3.06 µM | IC50 (HCT-116): 4.06 µM | IC50 (MKN74): 4.57 µM | IC50 (NCI-H520): 4.01 µM | IC50 (NCI-H747): 5.06 µM | IC50 (SNU1544): 3.1 µM | IC50 (SNU1684): 3.2 µM | IC50 (SW837): 6.24 µM
Structure (SMILES): CN[C@@H](C)C(=O)Nc1ccc(-c2c(-c3cccnc3OC)nc3cc(C)ccn23)c(C#Cc2ccc3c(C)nccc3c2)n1 [SMACm, BI 891065]
IC50 (C84): 3.35 µM | IC50 (HT55): 5 µM | IC50 (KLM-1): 3.93 µM | IC50 (PSN1): 7.21 µM | IC50 (WiDr): 4.25 µM
